Reference: PubChem BioAssay AID743339 (Broad Institute, 2014)
Active and inactive are the calls of the source.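 How the source made its calls: active means activation curve crossing 200% at or below the highest valid dose tested for that sample; inconclusive means flat curve with activation between 30 and 70%, or poor fit; inactive means the rest, including signal falling instead of rising.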

Biological target: Leucyl-cystinyl aminopeptidase (Mus musculus) (UniProt Q8C129)
Experiment: activation of mouse IRAP aminopeptidase activity – biochemical, Leu-AMC fluorescence, cherry-picked samples, selectivity assay for ERAP1 modulator project, dose response (AID 743339)
Conditions: purified IRAP, Leu-AMC cleavage fluorescence, 1 h

Leucyl-cystinyl aminopeptidase (Mus musculus), sequence (Q8C129 whole entry, looked up): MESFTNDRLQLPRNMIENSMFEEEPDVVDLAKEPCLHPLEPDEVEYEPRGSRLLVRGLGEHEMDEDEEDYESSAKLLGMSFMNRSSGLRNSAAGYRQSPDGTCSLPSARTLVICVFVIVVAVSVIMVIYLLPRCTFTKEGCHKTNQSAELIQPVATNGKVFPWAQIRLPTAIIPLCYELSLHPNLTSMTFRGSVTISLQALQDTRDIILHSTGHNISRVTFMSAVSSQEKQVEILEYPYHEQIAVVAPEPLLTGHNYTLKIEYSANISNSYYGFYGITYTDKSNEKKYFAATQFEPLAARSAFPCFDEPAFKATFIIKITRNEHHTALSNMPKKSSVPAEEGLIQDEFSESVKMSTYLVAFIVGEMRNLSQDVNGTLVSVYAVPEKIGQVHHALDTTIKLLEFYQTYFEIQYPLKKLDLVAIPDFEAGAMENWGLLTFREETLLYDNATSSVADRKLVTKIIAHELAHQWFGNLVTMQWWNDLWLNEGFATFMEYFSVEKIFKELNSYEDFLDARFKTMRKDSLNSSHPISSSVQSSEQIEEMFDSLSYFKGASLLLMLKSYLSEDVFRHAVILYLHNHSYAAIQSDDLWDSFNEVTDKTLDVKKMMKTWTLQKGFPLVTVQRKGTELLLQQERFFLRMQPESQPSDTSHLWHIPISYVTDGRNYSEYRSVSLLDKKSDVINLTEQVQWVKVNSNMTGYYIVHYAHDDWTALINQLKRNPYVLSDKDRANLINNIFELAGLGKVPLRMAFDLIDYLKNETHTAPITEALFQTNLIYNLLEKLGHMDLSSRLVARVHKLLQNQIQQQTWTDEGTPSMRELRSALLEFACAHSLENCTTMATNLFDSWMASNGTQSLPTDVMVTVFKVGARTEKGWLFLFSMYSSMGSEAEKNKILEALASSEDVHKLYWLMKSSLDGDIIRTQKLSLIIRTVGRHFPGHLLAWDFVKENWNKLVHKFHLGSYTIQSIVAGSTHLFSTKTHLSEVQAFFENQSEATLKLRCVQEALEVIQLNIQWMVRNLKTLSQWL

SMILES | activation (at 11 µM (top of the series)) | AC200 | further results
COc1ccc(NC(=O)Nc2ccc3c(c2)C(=O)N([C@H](C)CO)C[C@@H](C)[C@H](CN(C)Cc2ccc(C(=O)O)cc2)OCCCC[C@@H](C)O3)cc1 | 10% (inactive) |  | 
COc1cc2cc(C(=O)N3CCN(Cc4ccc5c(c4)OCO5)CC3)c(=O)oc2cc1OC |  |  | activation (at 2.6 µM (top of the series)): 150% (inactive)
Cc1cc(=O)oc2cc(NS(=O)(=O)c3ccc(F)cc3)ccc12 |  | 998 nM | 
C[C@H]1CN([C@@H](C)CO)C(=O)c2cccc(NC(=O)Nc3ccc4c(c3)OCO4)c2O[C@@H]1CN(C)CC1CC1 | -1.26% (inactive) |  | 
Cc1ccc2nc3c(cc(C(=O)NCc4ccccc4)c(=N)n3CCCn3ccnc3)c(=O)n2c1 |  | 2010 nM | 
C[C@@H]1CCCCO[C@H](CN(C)Cc2ccc(C(=O)O)cc2)[C@@H](C)CN([C@H](C)CO)C(=O)c2cc(NC(=O)Nc3ccc(C(F)(F)F)cc3)ccc2O1 | 9.92% (inactive) |  | 
C[C@@H]1CCCCO[C@H](CN(C)C)[C@H](C)CN([C@H](C)CO)C(=O)c2cc(NS(=O)(=O)c3ccc(Cl)cc3)ccc2O1 | 8.36% (inactive) |  | 
COc1ccc(CN(C)C[C@H]2OCCCC[C@@H](C)Oc3ccc(NS(=O)(=O)c4cccs4)cc3C(=O)N([C@@H](C)CO)C[C@H]2C)cc1 | 2.6% (inactive) |  | 
CN1CCCC1CCNc1ccc2c(=O)c3ccccc3oc2c1 (centres undefined) |  | 555 nM | 
CCCNC(=O)C[C@H]1CC[C@@H]2[C@H](COC[C@H](O)CN2C(=O)Nc2cccc(Cl)c2)O1 | 24.9% (inactive) |  | 
CCN(CC)Cc1c(O)c(Cl)cc2c(C)cc(=O)oc12 |  | 620 nM | 
CCN1CCN(Cc2c(O)ccc3c(C)cc(=O)oc23)CC1 |  | 1540 nM | 
Cc1cc(=O)oc2c(CN3CCN(CCO)CC3)c(O)ccc12 |  | 1450 nM | 
O=c1oc2c(CN3CCN(CCO)CC3)c(O)ccc2cc1-c1ccccn1 |  | 275 nM | 
O=c1ccc2cc(OC3O[C@H](CO)[C@@H](O)[C@H](O)[C@H]3O)c(O)cc2o1 (some centres undefined) |  | 346 nM | 
CCCNC(=O)C[C@@H]1CC[C@@H]2[C@H](COC[C@H](O)CN2C(=O)Nc2cccc(Cl)c2)O1 | 30.1% (inactive) |  | 
O=c1cc(CN2CCN(Cc3ccccc3)CC2)c2ccc(O)cc2o1 |  | 1470 nM | 
COc1ccc(NC(=O)Nc2cccc3c2O[C@H](CN(C)Cc2ccc(C(=O)O)cc2)[C@H](C)CN([C@H](C)CO)C3=O)cc1 | 8.21% (inactive) |  | 
C[C@H](CO)N1C[C@H](C)[C@H](CN(C)Cc2ccc(C(=O)O)cc2)Oc2c(NC(=O)Nc3ccccc3)cccc2C1=O | 24.2% (inactive) |  | 
COc1ccc(C2=NN(c3ccc(C(=O)O)cc3)C(c3ccc(OC)c(OC)c3)C2)cc1 (centres undefined) |  | 824 nM | 
Cc1c(C)c2ccc(O)c(CN3CCCC3)c2oc1=O |  | 1040 nM | 
CCCN(C)C[C@@H]1OCCCC[C@H](C)Oc2ccc(NC(=O)Nc3ccc(F)cc3)cc2C(=O)N([C@H](C)CO)C[C@@H]1C | -36.2% (inactive) |  | 
Cc1c(CC(=O)N2CCN(C(=O)C3COc4ccccc4O3)CC2)c(=O)oc2cc(O)c(Cl)cc12 (centres undefined) |  | 661 nM | 
Cc1cc(=O)oc2c(CN3CCCC3)c(O)c(Cl)cc12 |  | 673 nM | 
N#Cc1c(N2CCNCC2)nc(-c2ccco2)c2c1CCCC2 | 56.4% (inactive) |  | 

SMILES | activation (at 11 µM (top of the series)) | AC200 | further results
O=C(O)c1cccc(NC(=O)c2ccccc2NC(=O)c2cccc([N+](=O)[O-])c2)c1 | 8.03% (inactive) |  | 
COC(=O)Cc1c(C)c2ccc(O)c(CNCc3ccc(OC)c(OC)c3)c2oc1=O |  | 535 nM | 
CCCN1[C@@H]2Cn3c(ccc(/C=C/c4ccccc4)c3=O)[C@H]1[C@@H](C(=O)NCc1ccccn1)[C@@H]2CO |  | 992 nM | 
COc1cccc(S(=O)(=O)N(C)C[C@@H]2Oc3ncccc3C(=O)N([C@H](C)CO)C[C@@H]2C)c1 | 79.6% (inactive) |  | 
O=C(O)c1ccccc1NS(=O)(=O)c1cccc(-n2sc3ccccc3c2=O)c1 | -25.6% (inactive) |  | 
CN1[C@@H]2Cn3c(ccc(/C=C/c4ccccc4)c3=O)[C@H]1[C@@H](C(=O)NC1CCCC1)[C@@H]2CO |  | 983 nM | 
CCn1cc(CN2CCCC(C(=O)Nc3ccc(-c4nc5ccccc5[nH]4)cc3)C2)c(C)n1 (centres undefined) | -5.33% (inactive) |  | 
C[C@@H]1CCCCO[C@H](CN(C)Cc2ccc(C(=O)O)cc2)[C@H](C)CN([C@@H](C)CO)C(=O)c2cc(NC(=O)Nc3ccc(C(F)(F)F)cc3)ccc2O1 | 11.1% (inactive) |  | 
COc1ccc(NC(=O)Nc2ccc3c(c2)C(=O)N([C@H](C)CO)C[C@@H](C)[C@@H](CN(C)Cc2ccc(C(=O)O)cc2)OCCCC[C@@H](C)O3)cc1 | -5.71% (inactive) |  | 
O=c1ccc2cc(O[C@@H]3O[C@@H](CO)[C@H](O)[C@@H](O)[C@@H]3O)c(O)cc2o1 |  | 363 nM | 
CCC(=O)N(C)C[C@@H]1Oc2ncc(C#Cc3ccncc3)cc2C(=O)N([C@@H](C)CO)C[C@@H]1C | 2.82% (inactive) |  | 
O=c1oc2cc(O)ccc2cc1S(=O)(=O)c1ccccc1 |  | 351 nM | 
CCCN1[C@@H]2c3ccc(/C=C/c4ccccc4)c(=O)n3C[C@H]1[C@H](CO)[C@H]2C(=O)NCc1ccccn1 |  | 1000 nM | 
Cc1noc(C)c1S(=O)(=O)N(C)C[C@@H]1OCCCC[C@@H](C)Oc2ccc(NS(=O)(=O)c3cccs3)cc2C(=O)N([C@@H](C)CO)C[C@@H]1C |  |  | activation (at 10 µM (top of the series)): -12.6% (inactive)
COc1cccc(CN(C)Cc2cc(=O)oc3cc(O)c(Cl)cc23)c1 |  | 793 nM | 
O=C(NCc1ccccn1)[C@@H]1[C@@H](CO)[C@@H]2Cn3c(ccc(/C=C/c4ccccc4)c3=O)[C@H]1N2CC1CC1 |  | 1030 nM | 
Cc1ccc(S(=O)(=O)c2cc3ccc(O)cc3oc2=O)cc1C |  | 362 nM | 
C[C@H](CO)N1C[C@H](C)[C@H](CN(C)CC2CCCCC2)Oc2c(NC(=O)Nc3ccc4c(c3)OCO4)cccc2C1=O | -3.26% (inactive) |  | 
C[C@H]1CN([C@@H](C)CO)C(=O)c2cccc(NC(=O)Nc3ccc(C(F)(F)F)cc3)c2O[C@@H]1CN(C)C | -7.32% (inactive) |  | 
C[C@@H]1CCCCO[C@@H](CN(C)Cc2ccccc2)[C@@H](C)CN([C@H](C)CO)C(=O)c2cc(NS(=O)(=O)c3cccs3)ccc2O1 |  |  | activation (at 5.6 µM (top of the series)): 16.2% (inactive)
COC(=O)[C@@H]1[C@@H](CO)[C@@H]2Cn3c(ccc(/C=C/c4ccccc4)c3=O)[C@H]1N2C(=O)C1CCC1 |  | 1080 nM | 
C[C@@H]1CCCCO[C@@H](CN(C)S(C)(=O)=O)[C@@H](C)CN([C@@H](C)CO)C(=O)c2cc(NS(=O)(=O)c3ccc(Cl)cc3)ccc2O1 | -13.3% (inactive) |  | 
COc1cc2ccc(=O)oc2cc1O |  | 348 nM | 
Cc1c(-c2ccccc2)c(=O)oc2cc(O)ccc12 |  | 1240 nM | 
CC(=O)N1[C@@H]2c3ccc(/C=C/c4ccccc4)c(=O)n3C[C@H]1[C@H](CO)[C@H]2C(=O)N1CCOCC1 |  | 1100 nM | 

SMILES | activation (at 11 µM (top of the series)) | AC200 | further results
CC(=O)N1[C@@H]2c3ccc(/C=C/c4ccccc4)c(=O)n3C[C@H]1[C@H](CO)[C@H]2C(=O)N(C)C |  | 906 nM | 
O=c1ccc2cc(O[C@@H]3O[C@H](CO)[C@@H](O)[C@H](O)[C@H]3O)c(O)cc2o1 |  | 307 nM | 
C[C@@H]1CCCCO[C@@H](CN(C)Cc2ccc(C(=O)O)cc2)[C@@H](C)CN([C@H](C)CO)C(=O)c2cc(NC(=O)Nc3cccc4ccccc34)ccc2O1 | -5.32% (inactive) |  | 
O=S(=O)(O)c1ccc(N2N=C(c3ccccc3)CC2c2ccccc2)cc1 (centres undefined) |  | 1010 nM | 
Cc1noc(C)c1S(=O)(=O)Nc1ccc2c(c1)C(=O)N([C@H](C)CO)C[C@H](C)[C@H](CN(C)Cc1ccc3c(c1)OCO3)OCCCC[C@@H](C)O2 |  |  | activation (at 10 µM (top of the series)): -18.4% (inactive)
COc1ccc(-c2cc3ccc(O)cc3oc2=O)cc1OC |  | 983 nM | 
Cc1noc(C)c1NC(=O)Nc1ccc2c(c1)C(=O)N([C@H](C)CO)C[C@@H](C)[C@@H](CN(C)Cc1ccc(C(F)(F)F)cc1)OCCCC[C@@H](C)O2 | -4.93% (inactive) |  | 
C[C@@H]1CN([C@H](C)CO)C(=O)c2cc(NC(=O)Nc3ccc(F)cc3)ccc2O[C@H]1CN(C)Cc1ccc(C(=O)O)cc1 | 1.25% (inactive) |  | 
CC(=O)N1[C@@H]2Cn3c(ccc(/C=C/c4ccccc4)c3=O)[C@H]1[C@@H](C(=O)NCC1CC1)[C@@H]2CO |  | 1290 nM | 
CCc1c(C)c2cc(Cl)c(O)c(CN(CC)CC)c2oc1=O |  | 546 nM | 
Cc1noc(C)c1S(=O)(=O)Nc1ccc2c(c1)C(=O)N([C@H](C)CO)C[C@@H](C)[C@@H](CN(C)CC1CCCCC1)OCCCC[C@@H](C)O2 | 2.83% (inactive) |  | 
COc1ccc(CN(C)C[C@@H]2OCCCC[C@@H](C)Oc3ccc(NS(=O)(=O)c4cccs4)cc3C(=O)N([C@H](C)CO)C[C@H]2C)cc1 | 3.48% (inactive) |  | 
CCC(=O)N1[C@@H]2c3ccc(/C=C/c4ccccc4)c(=O)n3C[C@H]1[C@H](CO)[C@H]2C(=O)N(C)C |  | 872 nM | 
C[C@@H]1CCCCO[C@@H](CN(C)C)[C@@H](C)CN([C@@H](C)CO)C(=O)c2cc(NS(=O)(=O)c3ccc(Cl)cc3)ccc2O1 | -6.93% (inactive) |  | 
C/C(=N\NC(=O)CC#N)c1cc2ccc(O)cc2oc1=O |  | 1080 nM | 
O=C(NCC1CC1)[C@H]1[C@H](CO)[C@H]2Cn3c(ccc(/C=C/c4ccccc4)c3=O)[C@@H]1N2C(=O)C1CC1 |  | 927 nM | 
N#Cc1c(N)n(CCNC(=O)c2ccccc2)c2nc3ccccc3nc12 |  | > 2600 nM (inactive) | 
Cc1ccc(S(=O)(=O)Nc2ccc3c(c2)C(=O)N([C@@H](C)CO)C[C@H](C)[C@H](CN(C)C)OCCCC[C@@H](C)O3)cc1 | 8.57% (inactive) |  | 
COc1ccc(C(=O)O)cc1S(=O)(=O)Nc1cc(C(F)(F)F)ccc1N1CCCCC1 | 18.7% (inactive) |  | 
C[C@@H]1CCCCO[C@@H](CN(C)CC2CC2)[C@@H](C)CN([C@H](C)CO)C(=O)c2cc(NS(=O)(=O)c3ccc(Cl)cc3)ccc2O1 | -6.39% (inactive) |  | 
COc1ccc(S(=O)(=O)N(C)C[C@@H]2Oc3ncccc3C(=O)N([C@H](C)CO)C[C@@H]2C)cc1 |  |  | activation (at 5.6 µM (top of the series)): 9.5% (inactive)
O=C(C[C@H]1CC[C@@H]2[C@H](COC[C@@H](O)CN2C(=O)Nc2cccc(Cl)c2)O1)N1CCCCC1 |  | > 11000 nM (inactive) | 
COc1ccc(CN(C)C[C@@H]2OCCCC[C@@H](C)Oc3ccc(NS(=O)(=O)c4c(C)noc4C)cc3C(=O)N([C@@H](C)CO)C[C@@H]2C)cc1 | -18.2% (inactive) |  | 
O=C(CSc1cn[nH]n1)Nc1cccc(C(=O)O)c1 | 17.4% (inactive) |  | 
